Read-outs that look alike come from different tables or passages of the source.
Key:
[1] = system: Staphylococcus aureus (ATCC 29213); assay: Checkerboard combination / MIC assay with S. aureus ATCC 29213; assay type: cell-based; conditions: S. aureus ATCC 29213; for MIC: Staphylococcus aureus, read-out: MIC of antibiotic alone
Description: (§1) Colonies were suspended in PBS. The absorbance of each suspension was measured with a spectrophotometer, and then the suspension was adjusted to 1×10^6 CFU/mL. The testing inoculum was prepared within 20 minutes before adding to wells of the test plate. Final cellular density in the checkerboard assays was 5×10^5 CFU/mL.
(§2) The combination effect of antibacterial substances administered together was evaluated by an in vitro checkerboard combination method with Staphylococcus aureus (ATCC 29213) and Staphylococcus aureus (BAA-1717). Ramizol and Chlopam were tested alone in 11 points by two-fold serial titration and in combination with different commercial antibiotics which were tested in a 7-point titration alone and in combination with Ramizol and Chlopam using the checkerboard technique as recommended by the Clinical & Laboratory Standards Institute (CLSI. Methods for Dilution In Antimicrobial Susceptibility Tests for Bacteria That Grow Aerobically; Approved Standard-Eighth Edition. CLSI document M07-A8 (ISBN 1-56238-689-1). Vol. 29 No. 2. Clinical and Laboratory Standards Institute, USA, 2009). The commercial antibiotics were also tested alone. Twenty-four checkerboard tests were performed.
(§3) The starting concentration of Ramizol, Chlopam, and the commercial antibiotics was four fold of the MIC. The testing range for each combination was described in the following summary tables.
(§4) Compound dilutions of Ramizol and Chlopam were performed in 100% DMSO and the final DMSO concentration in all test wells was 2%. Growth control wells also included 2% DMSO. CLSI protocol was followed for medium, inoculum preparation, and endpoint reading. The commercial antibiotics were dissolved and diluted in the CLSI specified diluent. The final inoculum count for each strain was 5×10^5 CFU/mL.
Cefepime, Daptomycin, Linezolid, Mupirocin, Oxacillin and Vancomycin were also tested alone. Each test substance was dissolved and diluted in 100% DMSO or specified solvent. Each test substance dilution (2 μL) was added to 96 μL broth CAMHB. CAMHB seeded with S. aureus ATCC 29213 at 1×10^6 CFU/mL (100 μL) was then added to the plate to generate a final cell count at 5×10^5 CFU/mL.
(§5) Assay plates were incubated and MIC endpoints were read as described in the MIC assay. FIC (Fraction Inhibitory Concentration) and FIC Index (FICI) values for each test condition and the average of FICI values of all pairwise combinations were calculated to determine if synergy or antagonism existed between the two substances. The FIC index was determined by calculating the sum of the ratios of MICs for both substances. Arithmetically, the FIC Index of a combination of Substance 1 and Substance 2 was defined as following: FICI=Σ[FIC(Substance 1)+FIC(Substance 2)]=[(MIC of Substance 1 in combination/MIC of Substance 1 alone)+(MIC of Substance 2 in combination/MIC of Substance 2 alone)]. Synergy is defined as the FICI (Σ)≤0.5; additivity as FICI (Σ)>0.5 to ≤1; indifference as FICI (Σ)>1 to ≤4; antagonism is defined as the FICI (Σ)>4 (Zinner and Blaser, J. Journal of Antimicrobial Chemotherapy (1986), 17, 1-5; Amin, et al BMC Complementary & Alternative Medicine (2015), 15, 59; Zuo, et al. Molecules (2011), 16, 9819-9826).

[2] = system: Staphylococcus aureus (BAA-1717); assay: Checkerboard combination / MIC assay with S. aureus BAA-1717 (MRSA); assay type: cell-based; conditions: for Effect of individual antibiotic combinations: S. aureus BAA-1717
Description: as §1, §2, §3, §4
Each test substance was dissolved and diluted in 100% DMSO or specified solvent. Each test substance dilution (2 μL) was added to 96 μL broth CAMHB. CAMHB seeded with S. aureus BAA-1717 at 1×10^6 CFU/mL (100 μL) was then added to the plate to generate a final cell count at 5×10^5 CFU/mL.
as §5

MIC of antibiotic in combination with Chlopam ([1]; Chlopam 0.003906 μg/mL): 0.5 µg/mL
MIC of antibiotic in combination with Chlopam ([1]; Chlopam 0.0078125 μg/mL): 0.5 µg/mL
MIC of antibiotic in combination with Chlopam ([1]; Chlopam 0.015625 μg/mL): 0.5 µg/mL
MIC of antibiotic in combination with Chlopam ([1]; Chlopam 0.25 μg/mL): 0.25 µg/mL
MIC of antibiotic in combination with Chlopam ([1]; Chlopam 0.5 μg/mL): 0.016 µg/mL
MIC of antibiotic in combination with Ramizol ([1]; Ramizol 0.015625 μg/mL): 0.5 µg/mL
MIC of antibiotic in combination with Ramizol ([1]; Ramizol 0.03125 μg/mL): 0.5 µg/mL
MIC of antibiotic in combination with Ramizol ([1]; Ramizol 0.0625 μg/mL): 0.5 µg/mL
MIC of antibiotic in combination with Ramizol ([1]; Ramizol 0.125 μg/mL): 0.5 µg/mL
MIC of antibiotic in combination with Ramizol ([1]; Ramizol 4 μg/mL): 0.016 µg/mL
MIC ([1]; ATCC29213, Table 4, checkerboard series with Chlopam): 0.5 µg/mL
MIC ([1]; ATCC29213, Table 7, checkerboard series with Ramizol): 0.5 µg/mL
MIC of antibiotic in combination with Chlopam ([2]; Chlopam 0.001953 μg/mL, S. aureus ATCC BAA-1717): 0.5 µg/mL
MIC of antibiotic in combination with Chlopam ([2]; Chlopam 0.003906 μg/mL, S. aureus ATCC BAA-1717): 0.5 µg/mL
MIC of antibiotic in combination with Chlopam ([2]; Chlopam 0.0078125 μg/mL, S. aureus ATCC BAA-1717): 0.5 µg/mL
MIC of antibiotic in combination with Chlopam ([2]; Chlopam 0.015625 μg/mL, S. aureus ATCC BAA-1717): 0.5 µg/mL
MIC of antibiotic in combination with Chlopam ([2]; Chlopam 0.5 μg/mL, S. aureus ATCC BAA-1717): 0.016 µg/mL
MIC of antibiotic in combination with Ramizol ([2]; Ramizol 0.015625 μg/mL, S. aureus ATCC BAA-1717): 0.5 µg/mL
MIC of antibiotic in combination with Ramizol ([2]; Ramizol 0.03125 μg/mL, S. aureus ATCC BAA-1717): 0.5 µg/mL
MIC of antibiotic in combination with Ramizol ([2]; Ramizol 0.0625 μg/mL, S. aureus ATCC BAA-1717): 0.5 µg/mL
MIC of antibiotic in combination with Ramizol ([2]; Ramizol 0.125 μg/mL, S. aureus ATCC BAA-1717): 0.5 µg/mL
MIC of antibiotic in combination with Ramizol ([2]; Ramizol 2 μg/mL, S. aureus ATCC BAA-1717): 0.25 µg/mL
MIC of antibiotic in combination with Ramizol ([2]; Ramizol 4 μg/mL, S. aureus ATCC BAA-1717): 0.016 µg/mL
MIC ([2]; Staphylococcus aureus, ATCC BAA-1717 / BAA-1717, Table 4, checkerboard series with Chlopam, S. aureus ATCC BAA-1717, read-out: MIC of antibiotic alone): 0.5 µg/mL
MIC of antibiotic alone ([2]; Table 7, checkerboard series with Ramizol, S. aureus ATCC BAA-1717): 0.5 µg/mL
Compound: CCCCCCCCCC(=O)N[C@@H](Cc1c[nH]c2ccccc12)C(=O)N[C@H](CC(N)=O)C(=O)N[C@@H](CC(=O)O)C(=O)N[C@@H]1C(=O)NCC(=O)N[C@@H](CCCN)C(=O)N[C@@H](CC(=O)O)C(=O)N[C@H](C)C(=O)N[C@@H](CC(=O)O)C(=O)NCC(=O)N[C@H](CO)C(=O)N[C@@H]([C@H](C)CC(=O)O)C(=O)N[C@@H](CC(=O)c2ccccc2N)C(=O)O[C@@H]1C [Daptomycin]
FICI of combination with Chlopam ([1]; Chlopam 0.003906 μg/mL + labelled antibiotic at MIC of same cell): 1.0
FICI of combination with Chlopam ([1]; Chlopam 0.0078125 μg/mL + labelled antibiotic at MIC of same cell): 1.0
FICI of combination with Chlopam ([1]; Chlopam 0.015625 μg/mL + labelled antibiotic at MIC of same cell): 1.0
FICI of combination with Chlopam ([1]; Chlopam 0.25 μg/mL + labelled antibiotic at MIC of same cell): 1.0
FICI of combination with Chlopam ([1]; Chlopam 0.5 μg/mL + labelled antibiotic at MIC of same cell): 1.0
Effect of individual antibiotic combinations ([1]; Chlopam and daptomycin: 0.003901 and 0.5, 0.0078125 and 0.5, 0.015625 and 0.5, 0.25 and 0.25, 0.5 and 0.016 μg/mL): additive effect
FICI of combination with Ramizol ([1]; Ramizol 0.015625 μg/mL + labelled antibiotic at MIC of same cell): 1.0
FICI of combination with Ramizol ([1]; Ramizol 0.03125 μg/mL + labelled antibiotic at MIC of same cell): 1.0
FICI of combination with Ramizol ([1]; Ramizol 0.0625 μg/mL + labelled antibiotic at MIC of same cell): 1.0
FICI of combination with Ramizol ([1]; Ramizol 0.125 μg/mL + labelled antibiotic at MIC of same cell): 1.0
FICI of combination with Ramizol ([1]; Ramizol 4 μg/mL + labelled antibiotic at MIC of same cell): 1.0
Effect of individual antibiotic combinations ([1]; Ramizol and daptomycin: 0.015625 and 0.5, 0.03125 and 0.5, 0.0625 and 0.5, 0.125 and 0.5, 2 and 0.25, 2 and 0.125, 2 and 0.063, 2 and 0.031, 4 and 0.016 μg/mL): additive effect
mean FICI of combination with Chlopam ([1]; labelled antibiotic + Chlopam, mean of all pairwise combinations): 1.1
Effect of the combinations with Ramizol (by mean FICI) ([1]; labelled antibiotic + Ramizol): additive effect
mean FICI of combination with Ramizol ([1]; labelled antibiotic + Ramizol, mean of all pairwise combinations): 1.0
FICI of combination with Chlopam ([2]; Chlopam 0.001953 μg/mL + labelled antibiotic at MIC of same cell, S. aureus ATCC BAA-1717): 1.0
FICI of combination with Chlopam ([2]; Chlopam 0.003906 μg/mL + labelled antibiotic at MIC of same cell, S. aureus ATCC BAA-1717): 1.0
FICI of combination with Chlopam ([2]; Chlopam 0.0078125 μg/mL + labelled antibiotic at MIC of same cell, S. aureus ATCC BAA-1717): 1.0
FICI of combination with Chlopam ([2]; Chlopam 0.015625 μg/mL + labelled antibiotic at MIC of same cell, S. aureus ATCC BAA-1717): 1.0
FICI of combination with Chlopam ([2]; Chlopam 0.5 μg/mL + labelled antibiotic at MIC of same line, S. aureus ATCC BAA-1717): 1.0
Effect of individual antibiotic combinations ([2]; Chlopam and daptomycin: 0.001953 and 0.5, 0.003901 and 0.5, 0.0078125 and 0.5, 0.015625 and 0.5, 0.5 and 0.016 μg/mL): additive effect
FICI of combination with Ramizol ([2]; Ramizol 0.015625 μg/mL + labelled antibiotic at MIC of same cell, S. aureus ATCC BAA-1717): 1.0
FICI of combination with Ramizol ([2]; Ramizol 0.03125 μg/mL + labelled antibiotic at MIC of same cell, S. aureus ATCC BAA-1717): 1.0
FICI of combination with Ramizol ([2]; Ramizol 0.0625 μg/mL + labelled antibiotic at MIC of same cell, S. aureus ATCC BAA-1717): 1.0
FICI of combination with Ramizol ([2]; Ramizol 0.125 μg/mL + labelled antibiotic at MIC of same line, S. aureus ATCC BAA-1717): 1.0
FICI of combination with Ramizol ([2]; Ramizol 2 μg/mL + labelled antibiotic at MIC of same line, S. aureus ATCC BAA-1717): 1.0
FICI of combination with Ramizol ([2]; Ramizol 4 μg/mL + labelled antibiotic at MIC of same cell, S. aureus ATCC BAA-1717): 1.0
Effect of individual antibiotic combinations ([2]; Ramizol and daptomycin: 0.015625 and 0.5, 0.03125 and 0.5, 0.0625 and 0.5, 0.125 and 0.5, 2 and 0.25, 4 and 0.016 μg/mL): additive effect
mean FICI of combination with Chlopam ([2]; labelled antibiotic + Chlopam, mean of all pairwise combinations, S. aureus ATCC BAA-1717): 1.2
mean FICI of combination with Ramizol ([2]; labelled antibiotic + Ramizol, mean of all pairwise combinations, S. aureus ATCC BAA-1717): 1.1

— US20190328691A1, “ANTIBIOTIC THERAPY” (Boulos & Cooper Pharmaceuticals Pty Ltd, priority 2015, published 2019)
